Test results from patent US20240043427A1 (Gilead Sciences, Inc., priority 2020, published 2024).

Legend:
CD73 [1] = target: T1, CD73 (Homo sapiens (Human), UniProt P21589); assay type: biochemical; conditions: 1 mM NaH2PO4 in enzyme buffer, CD73 0.3 nM, AMP 15 uM
Procedure: Compound serial dilutions were pre-spotted into Thermo Nunc assay plate. 50 uL CD73 enzyme buffer (CD73 purchased from R&D system=0.6 nM, 25 mM Tris, pH 7.4, 5 mM MgCl2, 1 mM NaH2PO4) was added into the assay plate and incubate for 15 mins. […] After incubation for 60 mins, the supernatant (20 uL) was transferred into 384-well NUNC plate pre-filled with 60 uL Quench buffer (80% organic and 20% water+0.1% FA) with internal standard. The plate was spun down at 4500 rpm for 20 mins, then 20 uL of supernatant was transferred to another Nunc plate prefilled with 80 uL of water. The samples were analyzed using Rapid fire.

CD73 [2] = target: T1, CD73; experiment: MDA-MB-231 Cell Based CD73 Activity Assay (DMEM); conditions: MDA-MB-231-GFP cells, DMEM medium with 10% human plasma, 200 uM AMP

T1 sequence (P21589 27-574): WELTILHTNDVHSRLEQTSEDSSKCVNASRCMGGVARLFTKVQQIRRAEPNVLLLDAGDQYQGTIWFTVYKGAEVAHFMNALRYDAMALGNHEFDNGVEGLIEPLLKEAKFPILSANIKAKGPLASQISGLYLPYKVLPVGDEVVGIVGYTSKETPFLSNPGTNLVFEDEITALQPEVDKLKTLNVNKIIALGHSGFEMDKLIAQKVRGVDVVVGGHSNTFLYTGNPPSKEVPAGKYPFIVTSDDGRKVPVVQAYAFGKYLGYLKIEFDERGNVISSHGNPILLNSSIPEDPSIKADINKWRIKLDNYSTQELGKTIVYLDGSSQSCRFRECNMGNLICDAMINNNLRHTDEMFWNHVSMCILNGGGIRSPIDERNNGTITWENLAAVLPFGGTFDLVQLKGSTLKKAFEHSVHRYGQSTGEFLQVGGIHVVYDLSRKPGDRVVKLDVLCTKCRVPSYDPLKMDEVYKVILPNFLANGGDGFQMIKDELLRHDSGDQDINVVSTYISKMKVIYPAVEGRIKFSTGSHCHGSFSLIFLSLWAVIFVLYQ

Row | IC50 (CD73 [1]) [nM] | EC50 (CD73 [2]) [nM] | SMILES
1 | 0.89 | 1.91 | O=c1[nH]cc(-c2cc(N3C[C@H](Oc4ccc(OC(F)F)cn4)C(F)(F)C3)c3nccn3n2)c(=O)[nH]1 [Example 333, (S)-5-(8-(4-((5-(difluoromethoxy)pyridin-2-yl)oxy)-3,3-difluoropyrrolidin-1-yl)imidazo[1,2-b]pyridazin-6-yl)pyrimidine-2,4(1H,3H)-dione]
2 | 24.4 | 118 | O=c1[nH]cc(-c2cc(N3C[C@@H](Oc4ccc(OC(F)(F)F)cn4)C(F)(F)C3)c3nccn3n2)c(=O)[nH]1 [Example 334, (R)-5-(8-(3,3-difluoro-4-((5-(trifluoromethoxy)pyridin-2-yl)oxy)pyrrolidin-1-yl)imidazo[1,2-b]pyridazin-6-yl)pyrimidine-2,4(1H,3H)-dione]
3 | 2.8 | 6.77 | O=c1[nH]cc(-c2cc(N3C[C@H](Oc4ccc(OC(F)(F)F)cn4)C(F)(F)C3)c3nccn3n2)c(=O)[nH]1 [Example 335, (S)-5-(8-(3,3-difluoro-4-((5-(trifluoromethoxy)pyridin-2-yl)oxy)pyrrolidin-1-yl)imidazo[1,2-b]pyridazin-6-yl)pyrimidine-2,4(1H,3H)-dione]
4 | 34.9 | > 250 | O=c1[nH]cc(-c2cc(N3C[C@@H](Oc4ccc(OC(F)(F)C(F)(F)F)cn4)C(F)(F)C3)c3nccn3n2)c(=O)[nH]1 [Example 336, (R)-5-(8-(3,3-difluoro-4-((5-(perfluoroethoxy)pyridin-2-yl)oxy)pyrrolidin-1-yl)imidazo[1,2-b]pyridazin-6-yl)pyrimidine-2,4(1H,3H)-dione]
5 | 3.29 | 15.9 | O=c1[nH]cc(-c2cc(N3C[C@H](Oc4ccc(OC(F)(F)C(F)(F)F)cn4)C(F)(F)C3)c3nccn3n2)c(=O)[nH]1 [Example 337, (S)-5-(8-(3,3-difluoro-4-((5-(perfluoroethoxy)pyridin-2-yl)oxy)pyrrolidin-1-yl)imidazo[1,2-b]pyridazin-6-yl)pyrimidine-2,4(1H,3H)-dione]
6 | 10.9 | 72.8 | N#Cc1ccc(O[C@@H]2CN(c3cc(-c4c[nH]c(=O)[nH]c4=O)nn4ccnc34)CC2(F)F)nc1 [Example 338, (R)-6-((1-(6-(2,4-dioxo-1,2,3,4-tetrahydropyrimidin-5-yl)imidazo[1,2-b]pyridazin-8-yl)-4,4-difluoropyrrolidin-3-yl)oxy)nicotinonitrile]
7 | 0.91 | 2.6 | N#Cc1ccc(O[C@H]2CN(c3cc(-c4c[nH]c(=O)[nH]c4=O)nn4ccnc34)CC2(F)F)nc1 [Example 339, (S)-6-((1-(6-(2,4-dioxo-1,2,3,4-tetrahydropyrimidin-5-yl)imidazo[1,2-b]pyridazin-8-yl)-4,4-difluoropyrrolidin-3-yl)oxy)nicotinonitrile]
8 | 1.48 | 19 | O=c1[nH]cc(-c2cc(N3CC(Oc4cnc(C(F)(F)F)cn4)C(F)(F)C3)c3nccn3n2)c(=O)[nH]1 (centres unmarked) [Example 340, 5-(8-(3,3-difluoro-4-((5-(trifluoromethyl)pyrazin-2-yl)oxy)pyrrolidin-1-yl)imidazo[1,2-b]pyridazin-6-yl)pyrimidine-2,4(1H,3H)-dione]
9 | 0.43 | 0.53 | O=c1[nH]cc(-c2cc(N3C[C@H](Oc4cc(C(F)F)ccn4)C(F)(F)C3)c3nccn3n2)c(=O)[nH]1 [Example 341, (S)-5-(8-(4-((4-(difluoromethyl)pyridin-2-yl)oxy)-3,3-difluoropyrrolidin-1-yl)imidazo[1,2-b]pyridazin-6-yl)pyrimidine-2,4(1H,3H)-dione]
10 | 1.4 | 3.82 | N#Cc1ccnc(O[C@H]2CN(c3cc(-c4c[nH]c(=O)[nH]c4=O)nn4ccnc34)CC2(F)F)c1 [Example 342, 2-[(3S)-1-[6-(2,4-dioxo-1H-pyrimidin-5-yl)imidazo[1,2-b]pyridazin-8-yl]-4,4-difluoro-pyrrolidin-3-yl]oxypyridine-4-carbonitrile]
11 | 10.2 | 98 | O=c1[nH]cc(-c2cc(N3CC(Oc4ccc(C(F)(F)F)cn4)C4(CC4)C3)c3nccn3n2)c(=O)[nH]1 (centres unmarked) [Example 345, 5-[8-[7-[[5-(trifluoromethyl)-2-pyridyl]oxy]-5-azaspiro[2.4]heptan-5-yl]imidazo[1,2-b]pyridazin-6-yl]-1H-pyrimidine-2,4-dione]

Further lines, the compound ahead of its results:

Row | SMILES | IC50 (CD73 [1]) [nM] | EC50 (CD73 [2]) [nM]
12 | O=c1[nH]cc(-c2cc(N3CC(OC(F)F)C4(CC4)C3)c3nccn3n2)c(=O)[nH]1 (centres unmarked) [Example 343, 5-[8-[7-(difluoromethoxy)-5-azaspiro[2.4]heptan-5-yl]imidazo[1,2-b]pyridazin-6-yl]-1H-pyrimidine-2,4-dione] | 48.2 | 129
13 | O=c1[nH]cc(-c2cc(N3CC(O)C4(CC4)C3)c3nccn3n2)c(=O)[nH]1 (centres unmarked) [Example 344, 5-[8-(7-hydroxy-5-azaspiro[2.4]heptan-5-yl)imidazo[1,2-b]pyridazin-6-yl]-1H-pyrimidine-2,4-dione] | 38.4 | 97
14 | O=c1[nH]cc(-c2cc(N3CC(c4ccccc4)C(F)(F)C3)c3nccn3n2)c(=O)[nH]1 (centres unmarked) [Example 346, 5-(8-(3,3-difluoro-4-phenylpyrrolidin-1-yl)imidazo[1,2-b]pyridazin-6-yl)pyrimidine-2,4(1H,3H)-dione] | 6.08 | 24.4
15 | O=c1[nH]cc(-c2cc(N3CC[C@@H](OC(F)F)C3)c3nccn3n2)c(=O)[nH]1 [Example 347, (R)-5-(8-(3-(difluoromethoxy)pyrrolidin-1-yl)imidazo[1,2-b]pyridazin-6-yl)pyrimidine-2,4(1H,3H)-dione] | 4.39 | 11.9
16 | O=c1[nH]cc(-c2cc(N3CC[C@H](OC(F)F)C3)c3nccn3n2)c(=O)[nH]1 [Example 348, (S)-5-(8-(3-(difluoromethoxy)pyrrolidin-1-yl)imidazo[1,2-b]pyridazin-6-yl)pyrimidine-2,4(1H,3H)-dione] | 54 | 121
17 | COC1CN(c2cc(-c3c[nH]c(=O)[nH]c3=O)nn3ccnc23)CC12CC2 (centres unmarked) [Example 349, 5-(8-(7-methoxy-5-azaspiro[2.4]heptan-5-yl)imidazo[1,2-b]pyridazin-6-yl)pyrimidine-2,4(1H,3H)-dione] | 148 | 124
18 | O=c1[nH]cc(-c2cc(N3CC(F)(F)C4(CC4)C3)n3nccc3n2)c(=O)[nH]1 [Example 350, 5-(7-(7,7-difluoro-5-azaspiro[2.4]heptan-5-yl)pyrazolo[1,5-a]pyrimidin-5-yl)pyrimidine-2,4(1H,3H)-dione] | 12 | 99.3
19 | O=c1[nH]cc(-c2cc(N3CC(F)(F)C(F)(F)C3)c3ncc(F)n3n2)c(=O)[nH]1 [Example 351, 5-(3-fluoro-8-(3,3,4,4-tetrafluoropyrrolidin-1-yl)imidazo[1,2-b]pyridazin-6-yl)pyrimidine-2,4(1H,3H)-dione] | 10.6 | 56.4
20 | O=c1[nH]cc(-c2cc(N3C[C@@H]4[C@H](C3)[C@H]4C(F)(F)F)c3nccn3n2)c(=O)[nH]1 [Example 352, 5-(8-((1R,5S,6r)-6-(trifluoromethyl)-3-azabicyclo[3.1.0]hexan-3-yl)imidazo[1,2-b]pyridazin-6-yl)pyrimidine-2,4(1H,3H)-dione] | > 250 | 1000
21 | O=c1[nH]cc(-c2cc(N3CCC(C(F)(F)F)(C(F)(F)F)C3)c3nccn3n2)c(=O)[nH]1 [Example 353, 5-(8-(3,3-bis(trifluoromethyl)pyrrolidin-1-yl)imidazo[1,2-b]pyridazin-6-yl)pyrimidine-2,4(1H,3H)-dione] | 69.6 | 109
22 | N#CC12CC1CN(c1cc(-c3c[nH]c(=O)[nH]c3=O)nn3ccnc13)C2 (centres unmarked) [Example 354, 3-(6-(2,4-dioxo-1,2,3,4-tetrahydropyrimidin-5-yl)imidazo[1,2-b]pyridazin-8-yl)-3-azabicyclo[3.1.0]hexane-1-carbonitrile] | 90.8 | 401
23 | O=c1[nH]cc(-c2cc(N3CC4CC4(F)C3)c3nccn3n2)c(=O)[nH]1 (centres unmarked) [Example 355, 5-(8-(1-fluoro-3-azabicyclo[3.1.0]hexan-3-yl)imidazo[1,2-b]pyridazin-6-yl)pyrimidine-2,4(1H,3H)-dione] | 7.56 | 14.5
24 | O=c1[nH]cc(-c2cc(N3CC(F)(F)C(F)(F)C3)n3ncnc3n2)c(=O)[nH]1 [Example 356, 5-(7-(3,3,4,4-tetrafluoropyrrolidin-1-yl)-[1,2,4]triazolo[1,5-a]pyrimidin-5-yl)pyrimidine-2,4(1H,3H)-dione] | > 250 | 916
25 | O=c1[nH]cc(-c2cc(N3CC(F)(F)C4(CC4)C3)n3ncnc3n2)c(=O)[nH]1 [Example 357, 5-(7-(7,7-difluoro-5-azaspiro[2.4]heptan-5-yl)-[1,2,4]triazolo[1,5-a]pyrimidin-5-yl)pyrimidine-2,4(1H,3H)-dione] | > 250 | 402
26 | O=c1[nH]cc(-c2cc(N3CC(F)(F)C(F)(F)C3)n3nccc3n2)c(=O)[nH]1 [Example 358, 5-(7-(3,3,4,4-tetrafluoropyrrolidin-1-yl)pyrazolo[1,5-a]pyrimidin-5-yl)pyrimidine-2,4(1H,3H)-dione] | 27.8 | 82.2
27 | O=c1[nH]cc(-c2cc([C@H]3C[C@@H]3c3ncc(Br)cn3)c3nccn3n2)c(=O)[nH]1 [Example 380, 5-(8-((1S,2S)-2-(5-bromopyrimidin-2-yl)cyclopropyl)imidazo[1,2-b]pyridazin-6-yl)pyrimidine-2,4(1H,3H)-dione] | 3.43 | 14.3
28 | O=C1N(CC(F)(F)F)c2cc([C@H]3C[C@@H]3c3cc(-c4c[nH]c(=O)[nH]c4=O)nn4c(F)cnc34)ccc2C12CC2 [Example 381, 5-(3-fluoro-8-((1S,2S)-2-(2′-oxo-1′-(2,2,2-trifluoroethyl)spiro[cyclopropane-1,3′-indolin]-6′-yl)cyclopropyl)imidazo[1,2-b]pyridazin-6-yl)pyrimidine-2,4(1H,3H)-dione] | 0.69 | 0.16
